Laboratory results: patent US6403591B1, “1-azatricyclic-4-benzylpiperazines” (Neurogen Corporation, priority 1999, dated 2002)

Experiments:
[1] = biological target: primate D2 receptor (UniProt P52702); experiment: D2 receptor binding, 3H-YM 09151-2, CHO cell membranes; details: recombinant primate D2 in CHO cells, 0.1 nM 3H-YM 09151-2, 25° C.
Method: (§1) The following assay is a standard assay for determining the binding affinity of compounds to dopamine D4 and D2 receptors.
(§2) Pellets of Chinese hamster ovary (CHO) cells containing recombinantly produced primate D2, human D4 and human α1 receptors are used for the assays. The sample is homogenized in 100 volumes (w/vol) of 0.05 M Tris HCl buffer containing 120 mM NaCl, 5 mM MgCl2 and 1 mM EDTA at 4° C. and pH 7.4. The sample is then centrifuged at 30,000×g, resuspended and rehomogenized. The sample is then recentrifuged at 30,000×g, the supernatant is removed and the final tissue sample is frozen until it is needed. The tissue is resuspended 1:20 (wt/vol) in 0.05 M Tris HCl buffer containing 120 mM NaCl.
(§3) Incubations for dopaminergic binding are carried out at 25° C. and contain 0.4 ml of tissue sample, 0.1 nM ^3H-YM 09151-2 (Nemonapride, cis-5-Chloro-2-methoxy-4-(methylamino)-N-(2-methyl-2-(phenylmethyl)-3-pyrrolidinyl)benzamide) and the compound of interest in a total incubation of 1.0 ml. Nonspecific binding is defined as that binding found in the presence of 1 μM spiperone; without further additions, nonspecific binding is less than 20% of total binding.

[2] = biological target: T1, human D4 receptor (Homo sapiens, UniProt P21917); experiment: D4 receptor binding, 3H-YM 09151-2, CHO cell membranes; details: recombinant human D4 in CHO cells, 0.1 nM 3H-YM 09151-2, 25° C.
T1 sequence (P21917 1-419): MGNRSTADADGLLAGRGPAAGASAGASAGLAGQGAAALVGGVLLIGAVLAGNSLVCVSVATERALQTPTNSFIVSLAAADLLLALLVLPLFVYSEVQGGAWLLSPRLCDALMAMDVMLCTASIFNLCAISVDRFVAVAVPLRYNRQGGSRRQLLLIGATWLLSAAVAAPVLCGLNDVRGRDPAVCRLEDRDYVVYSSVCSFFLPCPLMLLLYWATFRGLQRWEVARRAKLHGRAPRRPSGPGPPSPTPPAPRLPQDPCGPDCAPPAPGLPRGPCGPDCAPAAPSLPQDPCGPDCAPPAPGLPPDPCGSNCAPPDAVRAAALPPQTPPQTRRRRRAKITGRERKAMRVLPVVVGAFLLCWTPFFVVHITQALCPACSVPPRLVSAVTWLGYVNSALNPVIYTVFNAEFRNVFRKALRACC
Method: as §1, §2, §3

[3] = test system: human α1 receptor; experiment: α1 receptor binding, 3H-prazosine, CHO cell membranes; details: recombinant human α1 in CHO cells
Method: as §2
Norepinephrine al binding is carried out using ^3H-prazosine as the ligand. Nonspecific binding is determined in the presence of 1 μM prazosine. Preferably, dopamine antagonists should not interact with the α1 adrenergic receptor, as interactions with this G-coupled protein receptor give rise to types of hypotension.

primate D2 receptor, sequence (P52702 whole entry): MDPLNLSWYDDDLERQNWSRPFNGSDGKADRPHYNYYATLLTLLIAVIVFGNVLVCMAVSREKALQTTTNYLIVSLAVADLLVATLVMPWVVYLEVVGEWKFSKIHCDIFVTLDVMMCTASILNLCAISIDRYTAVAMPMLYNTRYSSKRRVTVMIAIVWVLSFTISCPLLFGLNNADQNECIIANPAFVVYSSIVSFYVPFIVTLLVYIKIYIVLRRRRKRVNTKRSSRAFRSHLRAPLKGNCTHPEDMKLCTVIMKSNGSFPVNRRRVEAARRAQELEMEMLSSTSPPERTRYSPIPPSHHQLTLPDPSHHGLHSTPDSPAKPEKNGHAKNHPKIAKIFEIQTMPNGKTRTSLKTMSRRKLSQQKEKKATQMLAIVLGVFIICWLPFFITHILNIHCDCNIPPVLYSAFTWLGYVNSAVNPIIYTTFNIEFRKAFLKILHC

CC1Cc2cccc3c2N1C(=O)C(N1CCN(Cc2ccc(Cl)cc2)CC1)CC3 (mixture of isomers) [Compound 4]
Ki [1]: 0.05 µM
Ki [2]: 0.009 µM
Ki [3]: > 1 µM

Cc1ccc(CN2CCN(C3CCc4cccc5c4N(CC5)C3=O)CC2)cc1 (centres unmarked) [Compound 1, 5-[(4-methylbenzyl)piperazin-1-yl]-1,2,4,5,6,7-hexahydro-4-oxo-pyrrolo-[3,2,1-jk][1]benzazepine]
Ki [2]: 0.004 µM

CC1(C)Cc2cccc3c2N1C(=O)C(N1CCN(Cc2ccc(Cl)cc2)CC1)CC3 (centres unmarked) [Compound 2, 5-[(4-chlorobenzyl)piperazin-1-yl]-2,2-dimethyl-1,2,4,5,6,7-hexahydro-4-oxo-pyrrolo-[3,2,1-jk][1]benzazepine]
Ki [2]: 0.019 µM
